The source of these data is US8487103B2 (Roche Palo Alto LLC, priority 2009, dated 2013).

Data set [1] has as its target T1, HCV polymerase (NS5B570n-Con1) (Hepatitis C virus genotype 1b, UniProt Q9WMX2).
T1 construct: contains a 21 amino acid deletion at the C-terminus relative to the full-length HCV polymerase; 6-histidine (N); made in house; host or cells: E. coli BL21(DE) pLysS, plasmid pET 17b
Briefly: HCV NS5B RNA Polymerase Activity. It counts as biochemical, HCV Con1 strain. The protocol:
The enzymatic activity of HCV polymerase (NS5B570n-Con1) was measured as the incorporation of radiolabeled nucleotide monophosphates into acid insoluble RNA products. Unincorporated radiolabeled substrate was removed by filtration and scintillant was added to the washed and dried filter plate containing radiolabeled RNA product. The amount of RNA product generated by NS5B570-Con1 at the end of the reaction was directly proportional to the amount of light emitted by the scintillant.
The N-terminal 6-histidine tagged HCV polymerase, derived from HCV Con1 strain, genotype 1b (NS5B570n-Con1) contains a 21 amino acid deletion at the C-terminus relative to the full-length HCV polymerase and was purified from E. coli strain BL21(DE) pLysS. The construct, containing the coding sequence of HCV NS5B Con1 (GenBank accession number AJ242654) was inserted into the plasmid construct pET 17b, downstream of a T7 promoter expression cassette and transformed into E. coli. A single colony was grown overnight as a starter culture and later used inoculate 10 L of LB media supplemented with 100 μg/mL ampicillin at 37° C. Protein expression was induced by the addition of 0.25 mM isopropyl-β-D-thiogalactopyranoside (IPTG) when optical density at […] of the culture was between 0.6 and 0.8 and cells were harvested after 16 to 18 h at 30° C. NS5B570n-Con1 was purified to homogeneity using a three-step protocol including subsequent column chromatography on Ni-NTA, SP-Sepharose HP and Superdex 75 resins.
Each 50 μL enzymatic reaction contained 20 nM RNA template derived from the complementary sequence of the Internal Ribosome Entry Site (cIRES), 20 nM NS5B570n-Con1 enzyme, 0.5 μCi of tritiated UTP (Perkin Elmer catalog no. TRK-412; specific activity: 30 to 60 Ci/mmol; stock solution concentration from 7.5×10^−5 M to 20.6×10^−6 M), 1 μM each ATP, CTP, and GTP, 40 mM Tris-HCl pH 8.0, 40 mM NaCl, 4 mM DTT (dithiothreitol), 4 mM MgCl2, and 5 μl of compound serial diluted in DMSO. Reaction mixtures were assembled in 96-well filter plates (cat #MADVN0B, Millipore Co.) and incubated for 2 h at 30° C. Reactions were stopped by addition of 10% final (v/v) trichloroacetic acid and incubated for 40 min at 4° C. Reactions were filtered, washed with 8 reaction volumes of 10% (v/v) trichloroacetic acetic acid, 4 reaction volumes of 70% (v/v) ethanol, air dried, and 25 μl of scintillant (Microscint 20, Perkin-Elmer) was added to each reaction well.
The amount of light emitted from the scintillant was converted to counts per minute (CPM) on a Topcount® plate reader (Perkin-Elmer, Energy Range: Low, Efficiency Mode Normal, Count Time: 1 min, Background Subtract: none, Cross talk reduction: Off).
Data was analyzed in Excel® (Microsoft) and ActivityBase® (Idbs®). The reaction in the absence of enzyme was used to determine the background signal, which was subtracted from the enzymatic reactions. Positive control reactions were performed in the absence of compound, from which the background corrected activity was set as 100% polymerase activity. All data was expressed as a percentage of the positive control. The compound concentration at which the enzyme-catalyzed rate of RNA synthesis was reduced by 50% (IC50) was calculated by fitting equation (i) to the data where“Y”
[formula] corresponds to the relative enzyme activity (in %), “% Min” is the residual relative activity at saturating compound concentration, “% Max” is the relative maximum enzymatic activity, “X” corresponds to the compound concentration, and “S” is the Hill coefficient (or slope).

For data set [2], the system named is HCV replicon cells (2209-23), genotype 1b replicon. Briefly: HCV Replicon Assay (Renilla luciferase reporter). Type of data set: cell-based, HCV genotype 1b. As to conditions: Hepatitis C virus, 72 h; cell line 2209-23, luciferase activity after three days. On the technique in general: A replicon is a self-replicating genome or part of one, used to study replication in cells.

pIC50: −log10 of the molar value.

Broadly, the pIC50 is −log10 of the IC50, conventionally taken in molar units. Lower therefore signals a large IC50. For orientation: melting point means the temperature, or range, at which the solid turns liquid. Compound `CC(C)(C)c1cc(-c2cc(F)c[nH]c2=O)c2ncc(-c3ccc(NS(C)(=O)=O)cc3)nc2c1` [Compound I-2, N-{4-[7-tert-Butyl-5-(5-fluoro-2-oxo-1,2-dihydro-pyridin-3-yl)-quinoxalin-2-yl]-phenyl}-methanesulfonamide] had a melting point of over 300 °C. This compound showed a negative logarithm of the IC50 (pIC50) in data set [1] of 7.51. Consider `CC(C)(C)c1cc(-c2cc(F)c[nH]c2=O)c2ncc(-c3ccc(NS(C)(=O)=O)cc3)cc2c1` [Compound I-12], for which the melting point lay in the range of 208 to 210 °C. In turn, `CC(C)(C)c1cc(-c2cc(F)c[nH]c2=O)c2ncc(N3CC[C@H](CNS(C)(=O)=O)C3)nc2c1` [Compound I-4, N-{(S)-1-[7-tert-Butyl-5-(5-fluoro-2-oxo-1,2-dihydro-pyridin-3-yl)-quinoxalin-2-yl]-pyrrolidin-3-ylmethyl}-methanesulfonamide] had a melting point of 170 to 175 °C. For the same compound, the negative logarithm of the IC50 (pIC50) in data set [1] is 6.72. `COc1ccc(-c2cc(C(C)(C)C)cc3cc(N4CC[C@H](CNS(C)(=O)=O)C4)cnc23)c(=O)[nH]1` [Compound I-60, N-{(S)-1-[6-tert-Butyl-8-(6-methoxy-2-oxo-1,2-dihydro-pyridin-3-yl)-quinolin-3-yl]-pyrrolidin-3-ylmethyl}-methanesulfonamide] gave a pIC50 in data set [2] of 7.09. Compound `CC(C)(C)c1cc(-c2ccc[nH]c2=O)c2ncc(N3CCC(NS(C)(=O)=O)CC3)nc2c1` showed a melting point of 275 to 280 °C. For `COc1c(C(C)(C)C)cc(-c2ccc[nH]c2=O)c2ncc(N3CC(CNS(C)(=O)=O)C3)cc12` [Compound I-19, N-{1-[6-tert-Butyl-5-methoxy-8-(2-oxo-1,2-dihydro-pyridin-3-yl)-quinolin-3-yl]-azetidin-3-ylmethyl}-methanesulfonamide], the melting point lay within 177 to 180 °C. Further, the pIC50 in data set [1] is 8.52. The matching figures for `CC(C)(C)c1cc(-c2ccc[nH]c2=O)c2ncc(-c3ccc(NS(C)(=O)=O)cc3Cl)nc2c1` [Compound I-7]: 275 to 278 °C and 8.52. `CC(C)(C)c1cc(-c2ccc[nH]c2=O)c2ncc(-c3ccc(NS(C)(=O)=O)cc3)nc2c1` [Compound I-6, N-{4-[7-tert-Butyl-5-(2-oxo-1,2-dihydro-pyridin-3-yl)-quinoxalin-2-yl]-phenyl}-methanesulfonamide] came in with a melting point of 260 to 263 °C. Besides, in data set [1], the pIC50 was 9.00. In data set [1], `COc1c(C(C)(C)C)cc(-c2cc(Cl)c[nH]c2=O)c2ncc(-c3ccc(NS(C)(=O)=O)cc3)cc12` [Compound I-15, N-{4-[6-tert-Butyl-8-(5-chloro-2-oxo-1,2-dihydro-pyridin-3-yl)-5-methoxy-quinolin-3-yl]-phenyl}-methanesulfonamide] showed a pIC50 of 9.00. For the compound `COc1c(C2(C(F)F)CC2)cc(-c2ccc(C)[nH]c2=O)c2ncc(-c3ccc(NS(C)(=O)=O)cc3)cc12` [Compound I-37, N-{4-[6-(1-Difluoromethyl-cyclopropyl)-5-methoxy-8-(6-methyl-2-oxo-1,2-dihydro-pyridin-3-yl)-quinolin-3-yl]-phenyl}-methanesulfonamide], the pIC50 in data set [1] was 8.00.

Compound `COc1c(C(C)(C)C)cc(-c2c[nH]c(=O)[nH]c2=O)c2ncc(-c3ccc(NS(C)(=O)=O)cc3)cc12` [Compound I-25, N-{4-[6-tert-Butyl-8-(2,4-dioxo-1,2,3,4-tetrahydro-pyrimidin-5-yl)-5-methoxy-quinolin-3-yl]-phenyl}-methanesulfonamide] gave a pIC50 in data set [1] of 9.40. In data set [1], `COc1ccc(-c2cc(C(C)(C)C)cc3nc(-c4ccc(NS(C)(=O)=O)cc4Cl)cnc23)c(=O)[nH]1` [Compound I-9] had a pIC50 of 9.00. In data set [1], `COc1ccc(-c2cc(C(F)(F)F)c(OC)c3cc(-c4ccc(NS(C)(=O)=O)cc4)cnc23)c(=O)[nH]1` [Compound I-50] showed a negative logarithm of the IC50 (pIC50) of 9.22. In data set [1], `COc1c(C(F)(F)F)cc(-n2ccc(=O)[nH]c2=O)c2ncc(-c3ccc(NS(C)(=O)=O)cc3)cc12` [Compound I-51, N-{4-[8-(2,4-Dioxo-3,4-dihydro-2H-pyrimidin-1-yl)-5-methoxy-6-trifluoromethyl-quinolin-3-yl]-phenyl}-methanesulfonamide] had a negative-log IC50 (pIC50) of 8.42.

Take `CC(C)(C)c1cc(-c2cc(F)c[nH]c2=O)c2ncc(N3CCC(NS(C)(=O)=O)CC3)nc2c1` [Compound I-5]: the melting point lay in the range of 224 to 226 °C. In data set [1], this compound showed a pIC50 of 6.09. Compound `COc1nc2c(-c3ccc[nH]c3=O)cc(C(C)(C)C)cc2cc1-c1ccc(NS(C)(=O)=O)cc1` [Compound I-1, N-{4-[6-tert-Butyl-2-methoxy-8-(2-oxo-1,2-dihydro-pyridin-3-yl)-quinolin-3-yl]-phenyl}-methanesulfonamide] yielded a melting point of 274 to 276 °C. In data set [1], this compound had a pIC50 of 8.10. The matching figures for `COc1c(C(C)(C)C)cc(-c2ccc(CO)[nH]c2=O)c2ncc(-c3ccc(NS(C)(=O)=O)cc3)cc12` [Compound I-41, N-{4-[6-tert-Butyl-8-(6-hydroxymethyl-2-oxo-1,2-dihydro-pyridin-3-yl)-5-methoxy-quinolin-3-yl]-phenyl}-methanesulfonamide]: 293 to 295 °C and 9.70. As for `CC(C)(C)c1cc(-c2cc(F)c[nH]c2=O)c2ncc(N3CCC(NS(C)(=O)=O)CC3)cc2c1` [Compound I-13, N-{1-[6-tert-Butyl-8-(5-fluoro-2-oxo-1,2-dihydro-pyridin-3-yl)-quinolin-3-yl]-piperidin-4-yl}-methanesulfonamide], the melting point was 186 to 188 °C. The compound further gave a pIC50 in data set [1] of 7.19. The compound `Br.[2H]C([2H])([2H])C(c1cc(-c2ccc(OC)[nH]c2=O)c2ncc(-c3ccc(NS(C)(=O)=O)cc3)cc2c1OC)(C([2H])([2H])[2H])C([2H])([2H])[2H]` [Compound I-32, N-{4-[6-[1,1-di(methyl-d3)ethyl-2,2,2-d3]-5-methoxy-8-(6-methoxy-2-oxo-1,2-dihydro-pyridin-3-yl)-quinolin-3-yl]-phenyl}-methanesulfonamide] gave a pIC50 in data set [1] of 9.10.

The compound `COc1c(C(C)(C)C)cc(-c2ccc(C)[nH]c2=O)c2ncc(N3CC[C@H](CNS(C)(=O)=O)C3)cc12` [Compound I-46] showed a negative-log IC50 (pIC50) in data set [1] of 9.05. Same read-out and setting: then `COc1c(C(C)(C)C)cc(N2CCCNC2=O)c2ncc(-c3ccc(NS(C)(=O)=O)cc3)cc12` [Compound I-27, N-{4-[6-tert-Butyl-5-methoxy-8-(2-oxo-tetrahydro-pyrimidin-1-yl)-quinolin-3-yl]-phenyl}-methanesulfonamide], with 9.15. Regarding `COc1c(C(C)(C)C)cc(N2CCC(=O)NC2=O)c2ncc(-c3ccc(NS(C)(=O)=O)cc3)cc12` [Compound I-28, N-{4-[6-tert-Butyl-8-(2,4-dioxo-tetrahydro-pyrimidin-1-yl)-5-methoxy-quinolin-3-yl]-phenyl}-methanesulfonamide], the pIC50 in data set [1] was 8.70.

In turn, `COc1[nH]c(=O)c(-c2cc(C(C)(C)C)c(OC)c3cc(-c4ccc(NS(C)(=O)=O)cc4)cnc23)cc1F` [Compound I-47, N-{4-[6-tert-Butyl-8-(5-fluoro-6-methoxy-2-oxo-1,2-dihydro-pyridin-3-yl)-5-methoxy-quinolin-3-yl]-phenyl}-methanesulfonamide] showed a pIC50 in data set [1] of 7.89. Take `COc1ccc(-c2cc(C(C)(C)C)cc3cc(-c4ccc(NS(C)(=O)=O)cc4)cnc23)c(=O)[nH]1` [Compound I-58]: the pIC50 in data set [1] is 8.22.
